In ChEMBL document CHEMBL1157539, “Thousands of chemical starting points for antimalarial lead identification” (Nature, 2010):

Test system: Plasmodium falciparum
Assay: GSK_TCMDC: Inhibition of Plasmodium falciparum 3D7 in whole erythrocytes, using parasite LDH activity as an index of growth.
Format: functional, organism-based
Details: Plasmodium falciparum, 3D7

| Compound | XC50 |
| --- | --- |
| OC(CNC1CCCCC1)Cn1c2ccc(Br)cc2c2cc(Br)ccc21 (configuration not stated) | 303 nM |
| COCCCNc1sc(S(=O)(=O)c2ccccc2)nc1S(=O)(=O)c1ccc(Cl)cc1 | 877 nM |
| c1ccc(C2CCC(N3CCC(N4CCCC4)CC3)CC2)cc1 (configuration not stated) | 671 nM |
| CCNc1cc(C(=O)N[C@@H](Cc2ccccc2)[C@H](O)CNCCc2ccccc2)cc(N2CCCC2=O)c1 | 844 nM |
| O=C(c1ccc(-c2ccc(-c3nc4cc(C(F)(F)F)ccc4[nH]3)s2)cc1)N1CCN(CCc2ccccc2)CC1 | 592 nM |
| O=C(/C=C/c1ccc(Cl)c(Cl)c1)NCCCCCN1CCC(c2cn[nH]c2-c2ccccc2)CC1 | 1220 nM |
| CNCc1cccc2nc(-c3ccc(Cc4cc(Cl)ccc4OCC(C)C)o3)[nH]c12 | 895 nM |
| O=c1nc(NCCCCCN2CCC(c3c[nH]c4ccccc34)CC2)[nH]cc1Cc1ccc(Cl)c(Cl)c1 | 969 nM |
| COc1ccc(Cl)cc1-c1nc(C(=O)NCCN2CCCCC2)c(C)s1 | 938 nM |
| CCOc1cccc(C(=O)Nc2nonc2-c2ccc(OC)c(OC)c2)c1 | 1020 nM |
| O=C(/C=C/c1ccc(C(F)(F)F)cc1)NCCCCCN1CCCN(C(=O)Nc2ccc(Cl)c(C(F)(F)F)c2)CC1 | 202 nM |
| CC(C)c1ccc(NC(=O)c2ccc(CN3CCCN(Cc4cccc(Cl)c4)CC3)cc2)cc1 | 1160 nM |
| Cc1ncc([N+](=O)[O-])n1CCOC(=O)NC(Nc1ccc(Br)cc1)C(Cl)(Cl)Cl (configuration not stated) | 962 nM |
| CN1CCCN(Cc2cccc(-c3cccc(NC(=O)c4cccc(Cl)c4)c3)c2)CC1 | 889 nM |
| FC(F)c1nc2ccccc2n1-c1nc(N2CCOCC2)nc(N2CCOCC2)n1 [ZSTK-474] | 761 nM |
| O=C1CSc2ccc(CNC3CCN(CCc4c(F)cnc5ccc(F)cc45)CC3)nc2N1 | 525 nM |
| CCN(CC)CCCN(C(=O)c1cc2c(C)nn(-c3ccccc3)c2s1)c1nc(-c2ccc(OC)cc2)cs1 | 1150 nM |
| N=C(N)Nc1nc(-c2cccc(NC(=O)NCc3cccc4ccccc34)c2)cs1 | 841 nM |
| CCc1sc(CN(CCCNc2cc(=O)c3ccccc3[nH]2)Cc2sc(CC)c(Br)c2-c2ccsc2)c(-c2ccsc2)c1Br | 94.6 nM |
| O=C(/C=C/c1ccc(Cl)c(Cl)c1)NCCCCCN1CCCN(C(=S)Nc2cccc(Cl)c2)CC1 | 1050 nM |
| CCCCOc1ccc(N2C(N)=NC(N)=NC2(C)C)cc1 | 215 nM |
| Cc1[nH]c(C)c(-c2cc3ccccc3o2)c(=O)c1Cl | 1720 nM |
| CC1(C)N=C(N)N=C(N)N1c1ccc(Cl)cc1 | 31.1 nM |
| CC(C)(C)OC(=O)N(Cc1cc(-n2nnnc2C(F)(F)F)ccc1O)[C@H]1CCCN(C(=O)OC(C)(C)C)[C@H]1c1ccccc1 | 719 nM |
| COc1ccc(-c2onc(C(F)(F)F)c2-c2cc3ccccc3o2)c(O)c1 | 863 nM |

| Compound | XC50 |
| --- | --- |
| CN(C)c1ccc(OCCCCCCOc2ccccc2)cc1 | 496 nM |
| CC1CCN(CC[C@H]2CCCN2S(=O)(=O)c2cccc(NC(=O)c3ccc(-c4ccccc4)cc3)c2)CC1 | 1260 nM |
| COc1ccc([N+](=O)[O-])cc1N(Cc1ccccc1-c1ccccc1)S(=O)(=O)c1ccc(C(F)(F)F)cc1[N+](=O)[O-] | 1050 nM |
| Cc1cccc2nc(-c3ccc(-c4ccc(NC(=O)NCc5ccc(F)cc5)cc4)cc3)[nH]c12 | 1330 nM |
| COc1ccc(CN2CCC(N3CC(c4ccccc4)(c4ccccc4)OCC3=O)C2)c(O)c1 (configuration not stated) | 931 nM |
| COc1ccc(C=NN=c2cc(C)[nH]c3ccc(C)cc23)c2ccccc12 | 864 nM |
| Cc1cccc2c1NC(=O)/C2=N/NC(=S)N(C)C | 755 nM |
| COc1ccc2c(CCNc3nc(SC)ncc3C(=O)NCCc3ccc(F)cc3)c[nH]c2c1 | 762 nM |
| Cc1nc(Nc2ccncc2)cc(-c2ccncc2)n1 | 725 nM |
| O=C(Nc1ccc2c(c1)CN(Cc1ccc(N3CCCC3)o1)CCC2)c1ccoc1 | 953 nM |
| Cc1[nH]c(C)c(-c2ccc(-c3ccc(Cl)cc3)cc2)c(=O)c1Cl | 215 nM |
| O=C(Nc1cccc(-c2ccc(-c3nc4cc(F)ccc4[nH]3)cc2)c1)c1ccoc1 | 962 nM |
| Cc1ccc2c(N/N=C/c3ccccc3[N+](=O)[O-])cc(C)nc2c1 | 416 nM |
| CCCCN1CC[C@@H](CCC(O)c2ccnc3ccc(OCCC(C)C)cc23)[C@@H](CC)C1 (some centres not stated) | 989 nM |
| Cn1nc(-c2ccc(Cl)cc2)c2cc(C(=O)NCCN3CCOCC3)sc21 | 721 nM |
| CCOc1ccccc1CCNC(C)Cc1ccc(C(=O)Nc2ccc(CC(C)NCCc3cccc(Cl)c3)cc2)cc1 (configuration not stated) | 539 nM |
| Cc1ccc(CNC(=O)[C@H](Cc2ccccc2)Nc2cc(C)nc(Nc3ccccc3)n2)cc1 | 853 nM |
| Cc1nc(-c2cccc(Nc3nccc(NCC(O)c4cccc(C(F)(F)F)c4)n3)c2)cs1 (configuration not stated) | 627 nM |
| CCOC(=O)Cc1nc(C(=O)OCC)c(N)[nH]1 | 647 nM |
| C=Cc1cc(OC)c2c(c1)c(=O)oc1c2cc(OC)c2c(O)ccc([C@H]3O[C@H]([C@H](C)O)[C@H](O)[C@H]3O)c21 | 794 nM |
| Cc1ccc(Nc2cc(C)nn2-c2nc(C)cc(O)n2)cc1 | 864 nM |
| O=C(Nc1c(F)cccc1F)c1cccc(-c2nn3ccccc3c2-c2ccnc(Nc3cccc(-c4cnco4)c3)n2)c1 | 361 nM |
| N#CCSc1nnc(-c2ccccc2)c2ccccc12 | 723 nM |
| O=c1ccc2ccc(F)c3c2n1CC3CN1CCC(NCc2cccc(-c3cccs3)c2)CC1 (configuration not stated) | 834 nM |
| O=c1cc(NCCCNCc2cc(Cl)c(Cl)cc2Cl)[nH]c2ccccc12 | 966 nM |

| Compound | XC50 |
| --- | --- |
| COc1ccc2nccc([C@@H](O)CN3CCC(NCc4ccc5cccc(O)c5n4)CC3)c2n1 | 912 nM |
| Clc1cc(Cl)cc(Nc2ccnc(Nc3cc(Cl)cc(Cl)c3)n2)c1 | 672 nM |
| CCCC(C)Nc1nc(C)cc(N[C@@H](Cc2ccccc2)C(=O)NCc2ccc(C)cc2)n1 (some centres not stated) | 1120 nM |
| Cc1noc(C)c1-c1ccc2c(Nc3ccccc3C(C)(C)C)c(C(=O)NCc3ccc4c(c3)OCO4)cnc2c1 | 912 nM |
| N#Cc1ccc(-c2ccc(C(=O)NCCCCN3CCC(c4ccc5c(c4OCC(N)=O)CCCC5)CC3)nc2)cc1 | 730 nM |
| O=C(Nc1ccc(C(F)(F)F)cc1)c1cccc(S(=O)(=O)NC2CCN(Cc3ccccc3)C2)c1 (configuration not stated) | 1050 nM |
| Cc1nc2ccc(F)cc2n1C1CCN(C(=O)Cc2ccc(F)c(F)c2)CC1 | 1410 nM |
| CC1CN(c2ccc(NC(=O)c3ccsc3)cc2C(=O)N2CCN(Cc3ccc(C(C)(C)C)cc3)CC2)CC(C)O1 (configuration not stated) | 866 nM |
| Cc1ccc(/C=C/C(=O)NCCCCCN2CCC(c3c[nH]c4ccccc34)CC2)cc1 | 1010 nM |
| COc1ccc(C2CC(c3cccs3)=NN2C(=O)CNc2cccc(C#N)c2)cc1OC (configuration not stated) | 1450 nM |
| c1ccc(Oc2ccc(Nc3ccnc4cc(-c5csc(CNCCN6CCOCC6)n5)ccc34)cc2)cc1 | 708 nM |
| COc1nc2c(CCN3CC[C@H](NCc4cc(C#N)c5c(c4)CCO5)[C@H](O)C3)ccnc2cc1F | 350 nM |
| CS(=O)(=O)c1ccc2[nH]c(-c3cc(-c4cccc(F)c4)cnc3N)nc2c1 | 1090 nM |
| CN(C)Cc1ccc(O)c(-c2ccc(C(C)(C)C)cc2)n1 | 1080 nM |
| CCCCCCCN(CCCCCCC)CCCC(=O)Nc1ccnc2ccc(OC)cc12 | 154 nM |
| O=C(Nc1ccc(-c2cccc(-c3nc4cc(C(F)(F)F)ccc4[nH]3)c2)cc1)Nc1ccc(F)c(F)c1F | 706 nM |
| O=C(NCc1cccc(Br)c1)c1ccc(CNC2CCN(Cc3ccccc3)CC2)cc1 | 875 nM |
| COc1ccc(S(=O)(=O)N2CCC3(CC2)OCC(=O)NC3c2ccc(Cl)c(Cl)c2)cc1 (configuration not stated) | 644 nM |
| COc1ccc2c(c1)CC(CNC[C@H](O)c1cccc(Cl)c1)CC2 (some centres not stated) | 988 nM |
| COc1cccc2c(NN=Cc3ccccc3F)ccnc12 | 941 nM |
| CS(=O)(=O)c1ccc(-c2cc(C(F)(F)F)nc(N[C@@H]3CCCC[C@H]3OCc3ccccc3)n2)cc1 | 60.4 nM |
| CCCCCCNC(=O)C1Cc2c([nH]c3cc(Cl)ccc23)C2(CCN(CCC)CC2)N1 (configuration not stated) | 880 nM |
| O=S(=O)(Nc1cccc(CCN2CCC(N3CCCCC3)CC2)c1)c1cccc(C(F)(F)F)c1 | 976 nM |
| O=C(/C=C/c1ccc(Cl)c(Cl)c1)N1CCC(CN2CCC(c3c(-c4ccccc4)[nH]c4ccccc34)CC2)CC1 | 335 nM |
| CCN(CC)CC(O)CNc1c2ccc([N+](=O)[O-])cc2nc2cc(OC)c(OC)cc12 (configuration not stated) | 266 nM |

| Compound | XC50 |
| --- | --- |
| O=C(C=Cc1ccc(F)cc1)NC1CCC(CCN2CCc3ccc(-c4cnccn4)cc3CC2)CC1 (configuration not stated) | 695 nM |
| CCN1CCC(NCc2ccc(-c3ccc(Cl)s3)cc2)CC1 | 939 nM |
| COCCCNc1nc2cc(OC)c(OC)cc2c2nc(-c3ccccc3)nn12 | 192 nM |
| O=C(Nc1cccc(CN2CCCN(Cc3ccc4c(c3)OCO4)CC2)c1)c1ccc(Cl)c(Cl)c1 | 893 nM |
| CS(=O)(=O)Nc1ccc(OCCCCCCOc2ccc(NS(C)(=O)=O)cc2)cc1 | 493 nM |
| Nc1nc(N)c2c(ccc3c2ccn3CCCC2CCCNC2)n1 (configuration not stated) | 898 nM |
| CC(C)(CNCc1ccc(F)c(F)c1)c1nc(-c2ccc(Cl)c(O)c2)c(-c2ccncc2)[nH]1 | 660 nM |
| COc1cccc(CNC[C@@H](O)[C@H](Cc2ccccc2)NC(=O)c2cc3c4c(c2)c(C(C)C)cn4CCS(=O)(=O)N3C)c1 | 154 nM |
| CC(=O)Nc1ccc(S(=O)(=O)Nc2ccc(Nc3nc(C)cc(N4CCCCC4)n3)cc2)cc1 | 779 nM |
| COc1ccc(-c2nnc(Sc3ccc(C#N)c([N+](=O)[O-])c3)n2CCC(C)C)cc1 | 1110 nM |
| CC[C@H]1CN(Cc2ccco2)CC[C@H]1CCCc1ccnc2ccc(O)cc12 | 1270 nM |
| COc1ccc(CN(C)CCCCc2ccc(NC(=O)COc3cccc4sc5ccccc5c(=O)c34)cc2)cc1OC | 809 nM |
| Cc1cc2nc(-c3ccc(C(=O)NCc4ccc(Cl)c(Cl)c4)cc3)[nH]c2cc1C | 828 nM |
| COc1cc(CN2CCC(C(=O)Nc3ccc(-c4cccc(C)c4)cc3)CC2)ccc1O | 1120 nM |
| CCC(C)c1ccc(NC(=O)Nc2ccnc3ccccc23)cc1 (configuration not stated) | 625 nM |
| CN1CCN(CCCN(Cc2csc(-c3ccc(CNCc4ccccc4)cc3)n2)C(=O)Nc2ccc3ccccc3c2)CC1 | 1100 nM |
| Fc1cccc(COc2ccc(Nc3ncnc4sc(C#CCNC5CCC5)cc34)cc2Cl)c1 | 875 nM |
| COCCNCc1ccc(-c2ccc3c(Nc4ccc(Cl)cc4F)ccnc3c2)o1 | 206 nM |
| CCSc1ccccc1COc1c(C)nc(N)nc1N | 68.4 nM |
| O=C(O)CCCN1CCCC(=C(c2ccccc2)c2ccccc2)C1 | 1190 nM |
| O=C1COc2cc(Cl)c(CNC3CCN(CCc4ccnc5c(F)cc(F)cc45)CC3)nc2N1 | 797 nM |
| COC(=O)Nc1nc2cc3c(cc2s1)OCCO3 | 841 nM |
